Data from patent US12060347B2 (BRISTOL-MYERS SQUIBB COMPANY, priority 2016, dated 2024).

These molecules were tested against T1, human PAR4 (Homo sapiens, UniProt Q96RI0) (assay: PAR4 FLIPR assay: antagonism of agonist-peptide-induced calcium mobilization in PAR4-expressing HEK293 cells). Conditions: H-Ala-Phe(4-F)-[…]NH2-induced intracellular calcium mobilization, 11-point curves.
T1 construct: expressed in transfected cells; host or cells: HEK293 PAR4 Clone 1.2A (BMS Arctic ID 383940)
T1 sequence (Q96RI0 18-385): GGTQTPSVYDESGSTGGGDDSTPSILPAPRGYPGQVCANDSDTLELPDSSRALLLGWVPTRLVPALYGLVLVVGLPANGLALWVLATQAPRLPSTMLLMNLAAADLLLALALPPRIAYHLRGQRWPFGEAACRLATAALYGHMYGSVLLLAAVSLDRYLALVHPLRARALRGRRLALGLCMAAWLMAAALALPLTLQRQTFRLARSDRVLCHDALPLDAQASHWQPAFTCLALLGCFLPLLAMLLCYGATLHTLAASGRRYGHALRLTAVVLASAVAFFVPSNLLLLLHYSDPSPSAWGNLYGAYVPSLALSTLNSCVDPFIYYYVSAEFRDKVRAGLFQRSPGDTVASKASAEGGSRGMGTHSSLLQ
Assay type: cell-based

| IC50 [nM] | SMILES |
| --- | --- |
| 1.8 | COCc1cnc2c(-c3nc4c(C)cc(OC)cc4s3)cc(Cl)cc2c1 [Example 625, 2-(6-chloro-3-(methoxymethyl)quinolin-8-yl)-6-methoxy-4-methylbenzo[d]thiazole] |
| 7.2 | COc1cnc2c(-c3nc4c(C)cc(OC)cc4s3)cc(Cl)cc2c1 [Example 626, 2-(6-chloro-3-methoxyquinolin-8-yl)-6-methoxy-4-methylbenzo[d]thiazole] |
| 1400 | COc1cc(C(C)(C)O)c2nc(-c3cc(C)cc4nc(OC)cnc34)sc2c1 [Example 627, 2-(6-methoxy-2-(2-methoxy-7-methylquinoxalin-5-yl)benzo[d]thiazol-4-yl)propan-2-ol] |
| 1.4 | COCc1cnc2c(-c3nc4c(C(O)C(C)(C)C)cc(OC)cc4s3)cc(C)cc2n1 (stereo not shown) [Example 628, 1-(6-methoxy-2-(2-(methoxymethyl)-7-methylquinoxalin-5-yl)benzo[d]thiazol-4-yl)-2,2-dimethylpropan-1-ol] |
| 2.2 | COc1cc(C(O)c2ccccc2)c2nc(-c3cc(C)cc4nc(OC)cnc34)sc2c1 (stereo not shown) [Example 629, (6-methoxy-2-(2-methoxy-7-methylquinoxalin-5-yl)benzo[d]thiazol-4-yl) (phenyl)methanol] |
| 1.4 | COc1cc(C(O)C(C)(C)C)c2nc(-c3cc(C)cc4nc(OC)cnc34)sc2c1 (stereo not shown) [Example 630, 1-(6-methoxy-2-(2-methoxy-7-methylquinoxalin-5-yl)benzo[d]thiazol-4-yl)-2,2-dimethylpropan-1-ol] |
| 5.3 | COc1cc(C(O)Cc2ccccc2)c2nc(-c3cc(C)cc4nc(OC)cnc34)sc2c1 (stereo not shown) [Example 631, 1-(6-methoxy-2-(2-methoxy-7-methylquinoxalin-5-yl)benzo[d]thiazol-4-yl)-2-phenylethanol] |
| 10 | COc1cnc2c(-c3nc4c(C(O)C(C)(C)C)c(F)c(OC)cc4s3)cc(C)cc2n1 (stereo not shown) [Example 632, 1-(5-fluoro-6-methoxy-2-(2-methoxy-7-methylquinoxalin-5-yl)benzo[d]thiazol-4-yl)-2,2-dimethylpropan-1-ol] |
| 44 | COc1cc(C(F)C(C)(C)C)c2nc(-c3cc(C)cc4nc(OC)cnc34)sc2c1 (stereo not shown) [Example 634, 4-(1-fluoro-2,2-dimethylpropyl)-6-methoxy-2-(2-methoxy-7-methylquinoxalin-5-yl)benzo[d]thiazole] |
| 10 | COCc1cnc2c(-c3nc4c(OCc5ccccc5)cc(OC)cc4s3)cc(C)cc2n1 [Example 635, 4-(benzyloxy)-6-methoxy-2-(2-(methoxymethyl)-7-methylquinoxalin-5-yl)benzo[d]thiazole] |
| 3 | COc1cc(C(O)C(C)(C)C)c2nc(-c3cc(Cl)cc4nc(OC)cnc34)sc2c1 (stereo not shown) [Example 636, 1-(2-(7-chloro-2-methoxyquinoxalin-5-yl)-6-methoxybenzo[d]thiazol-4-yl)-2,2-dimethylpropan-1-ol] |
| 2.1 | COc1cc(C(O)C(C)(C)C)c2nc(-c3cc(C)cc4nc(OC)cnc34)sc2c1 (stereo not shown) [Example 637, 1-(6-methoxy-2-(2-methoxy-7-methylquinoxalin-5-yl)benzo[d]thiazol-4-yl)-2,2-dimethylpropan-1-ol] |
| 2.7 | COc1cnc2c(-c3nc4c(C(O)C(C)(C)C)cc(OCCOC(=O)Nc5cncc(C#N)c5)cc4s3)cc(C)cc2n1 (stereo not shown) [Example 638, 2-((4-(1-hydroxy-2,2-dimethylpropyl)-2-(2-methoxy-7-methylquinoxalin-5-yl)benzo[d]thiazol-6-yl)oxy)ethyl (5-cyanopyridin-3-yl)carbamate] |
| 1.4 | COc1cc(C(O)C(C)(C)C)c2nc(-c3cc(C#N)cc4nc(OC)cnc34)sc2c1 (stereo not shown) [Example 639, 8-(4-(1-hydroxy-2,2-dimethylpropyl)-6-methoxybenzo[d]thiazol-2-yl)-3-methoxyquinoxaline-6-carbonitrile] |
| 8 | CCOc1cc(C(O)C(C)(C)C)c2nc(-c3cc(C)cc4nc(OC)cnc34)sc2c1 (stereo not shown) [Example 640, 1-(6-ethoxy-2-(2-methoxy-7-methylquinoxalin-5-yl)benzo[d]thiazol-4-yl)-2,2-dimethylpropan-1-ol] |
| 250 | COc1cc(CCO)c2nc(-c3cc(C)cc4nc(OC)cnc34)sc2c1 [Example 641, 2-(6-methoxy-2-(2-methoxy-7-methylquinoxalin-5-yl)benzo[d]thiazol-4-yl)ethanol] |
| 4.6 | COc1cc(C(O)c2cccc(C(F)(F)F)c2)c2nc(-c3cc(C)cc4nc(OC)cnc34)sc2c1 (stereo not shown) [Example 642, (6-methoxy-2-(2-methoxy-7-methylquinoxalin-5-yl)benzo[d]thiazol-4-yl)(3-(trifluoromethyl)phenyl)methanol] |
| 5.3 | COc1cc(C(O)c2ccccc2C(C)C)c2nc(-c3cc(C)cc4nc(OC)cnc34)sc2c1 (stereo not shown) [Example 643, (2-isopropylphenyl)(6-methoxy-2-(2-methoxy-7-methylquinoxalin-5-yl)benzo[d]thiazol-4-yl)methanol] |
| 21 | CCOC(=O)C1(C(O)c2cc(OC)cc3sc(-c4cc(C)cc5nc(OC)cnc45)nc23)CCC1 (stereo not shown) [Example 644, Ethyl 1-(hydroxy(6-methoxy-2-(2-methoxy-7-methylquinoxalin-5-yl)benzo[d]thiazol-4-yl)methyl)cyclobutanecarboxylate] |
| 4.9 | COc1cnc2c(-c3nc4cc(F)c(O[C@@H](C)[C@@H](C)OC(=O)Nc5cnc(C)nc5)cc4s3)cc(Cl)cc2c1 [Example 645, (2R,3S)-3-((2-(6-chloro-3-methoxyquinolin-8-yl)-5-fluorobenzo[d]thiazol-6-yl)oxy)butan-2-yl (2-methylpyrimidin-5-yl)carbamate] |
| 3.8 | COc1cc(C(O)C2(CO)CCC2)c2nc(-c3cc(C)cc4nc(OC)cnc34)sc2c1 (stereo not shown) [Example 646, (1-(hydroxymethyl)cyclobutyl)(6-methoxy-2-(2-methoxy-7-methylquinoxalin-5-yl)benzo[d]thiazol-4-yl)methanol] |
| 19 | CCc1cnc2c(-c3nc4cc(F)c(O[C@@H](C)[C@@H](C)OC(=O)Nc5cnc(C)nc5)cc4s3)cc(Cl)cc2c1 [Example 647, (2R,3S)-3-((2-(6-chloro-3-ethylquinolin-8-yl)-5-fluorobenzo[d]thiazol-6-yl)oxy)butan-2-yl(2-methylpyrimidin-5-yl)carbamate] |
| 3 | COc1cnc2c(-c3nc4cc(F)c(O[C@@H](C)[C@@H](C)OC(=O)Nc5cnc(C)nc5)cc4s3)cc(C)cc2c1 [Example 648, (2R,3S)-3-((5-fluoro-2-(3-methoxy-6-methylquinolin-8-yl)benzo[d]thiazol-6-yl)oxy)butan-2-yl (2-methylpyrimidin-5-yl)carbamate] |
| 7.4 | CCOc1cnc2c(-c3nc4cc(F)c(O[C@@H](C)[C@@H](C)OC(=O)Nc5cnc(C)nc5)cc4s3)cc(Cl)cc2c1 [Example 649, (2R,3S)-3-((2-(6-chloro-3-ethoxyquinolin-8-yl)-5-fluorobenzo[d]thiazol-6-yl)oxy)butan-2-yl (2-methylpyrimidin-5-yl)carbamate] |
| 5.6 | Cc1ncc(NC(=O)O[C@H](C)[C@H](C)Oc2cc3sc(-c4cc(Cl)cc5cc(OC(F)F)cnc45)nc3cc2F)cn1 [Example 650, (2R,3S)-3-((2-(6-chloro-3-(difluoromethoxy)quinolin-8-yl)-5-fluorobenzo[d]thiazol-6-yl)oxy)butan-2-yl (2-methylpyrimidin-5-yl)carbamate] |
